# Measurements taken from patent US9512107B2, “Therapeutically active compositions and their methods of use” (Agios Pharmaceuticals, Inc., priority 2012, dated 2016).
# Numbering of substitutions follows the chain as printed. Read-outs that look alike come from different tables or passages of the source.
# How the values were obtained:
# [1] = target: T1, IDH2 R172K (Homo sapiens, UniProt P48735, R172K); assay: IDH2 R172K enzymatic assay (NADPH cofactor depletion, diaphorase/resazurin readout); assay type: biochemical; settings: read-out: Enz R172K
# T1 sequence (P48735 40-452 R172K): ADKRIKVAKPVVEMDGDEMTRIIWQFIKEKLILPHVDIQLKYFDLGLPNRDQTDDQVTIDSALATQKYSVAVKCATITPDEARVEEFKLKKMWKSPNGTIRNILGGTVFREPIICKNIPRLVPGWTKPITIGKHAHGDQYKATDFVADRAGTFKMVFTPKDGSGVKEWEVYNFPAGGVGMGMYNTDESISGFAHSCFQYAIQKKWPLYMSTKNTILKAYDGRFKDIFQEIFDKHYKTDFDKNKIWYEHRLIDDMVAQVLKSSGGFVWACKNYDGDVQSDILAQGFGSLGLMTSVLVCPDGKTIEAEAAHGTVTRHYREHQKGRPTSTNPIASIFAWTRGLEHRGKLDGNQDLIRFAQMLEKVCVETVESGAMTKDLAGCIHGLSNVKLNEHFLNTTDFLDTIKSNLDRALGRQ
# Protocol: Compounds are assayed for IDH2 R172K inhibitory activity through a cofactor depletion assay. […] The reaction is terminated by the addition of a second enzyme, diaphorase, and a corresponding substrate, resazurin. Diaphorase reduces resazurin to the highly fluorescent resorufin with the concomitant oxidation of NADPH to NADP, both halting the IDH2 reaction by depleting the available cofactor pool and facilitating quantitation of the amount of cofactor remaining after a specific time period through quantitative production of an easily detected fluorophore.
# The test compound is then incubated for one hour at room temperature with the enzyme; before starting the IDH2 reaction with the addition of 10 μl of substrate mix containing 50 μM NADPH and 6.3 mM α-KG in the buffer described above. After a further one hour of incubation at room temperature, the reaction is halted and the remaining NADPH measured through conversion of resazurin to resorufin by the addition of 25 μl Stop Mix (36 μg/ml diaphorase enzyme and 60 μM resazurin; in buffer).
# [2] = target: T2, IDH2 R140Q (Homo sapiens, UniProt P48735, R140Q); assay: IDH2 R140Q enzymatic assay (cofactor depletion, similar format); assay type: biochemical; settings: read-out: Enz R140Q
# T2 sequence (P48735 40-452 R140Q): T1 sequence (P48735 40-452 R172K) with R101Q, K133R
# [3] = system: U87MG pLVX-IDH2 R140Q-neo cells; assay: U87MG pLVX-IDH2 R140Q-neo cell based assay, 2-HG in media by LC-MS at 48 hours
# Procedure, shortened: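 2-HG secreted into the medium was measured by LC-MS after 48 h of compound treatment (0.2% DMSO final) of U87MG pLVX-IDH2 R140Q-neo cells in DMEM/10% FBS. The same wells were assayed at 72 h by CellTiter-Glo luminescence for effects on growth.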
Compound,IC50 [1] [nM],IC50 [2] [nM],"IC50 ([3]; Homo sapiens, U-87 MG) [nM]",IC50 [3] [nM]
c1ccc(Nc2nc(NC3CC3)nc(-c3ccccc3)n2)cc1 [Compound 110],100 to 1000,< 100,< 100,–
c1ccc(Nc2nc(NCC3CC3)nc(-c3ccccc3)n2)cc1 [Compound 111],< 100,< 100,< 100,–
c1ccc(Nc2nc(NC3CCCCC3)nc(-c3ccccc3)n2)cc1 [Compound 113],100 to 1000,< 100,< 100,–
COc1cccc(-c2nc(Nc3ccccc3)nc(NC(C)C)n2)c1 [Compound 115],100 to 1000,< 100,100 to 1000,–
COc1ccc(-c2nc(Nc3ccccc3)nc(NC(C)C)n2)cc1 [Compound 116],1000 to 10000,100 to 1000,–,–
CC(C)Nc1nc(Nc2ccccc2)nc(-c2ccc(F)cc2F)n1 [Compound 118],100 to 1000,< 100,100 to 1000,–
CC(C)Nc1nc(Nc2ccccc2)nc(-c2ccnn2C)n1 [Compound 119],> 10000,100 to 1000,1000 to 10000,–
CC(C)Nc1nc(Nc2ccc(O)cc2)nc(-c2ccccc2)n1 [Compound 133],> 10000,100 to 1000,–,–
"c1ccc(-c2nc(Nc3ccncc3)nc(NC3CC3)n2)cc1 [Compound 217, N^2-cyclopropyl-6-phenyl-N^4-(pyridin-4-yl)-1,3,5-triazine-2,4-diamine]",1000 to 10000,< 100,–,–
"O=C(Nc1nc(Nc2ccccc2)nc(-c2ccccc2)n1)C1CCCO1 (stereo not drawn) [Compound 243, N-(4-phenyl-6-(phenylamino)-1,3,5-triazin-2-yl)tetrahydrofuran-2-carboxamide]",1000 to 10000,100 to 1000,–,–
"CC(C)(O)CNc1nc(Nc2cncc(C(F)(F)F)c2)nc(-c2cccc(C(F)(F)F)n2)n1 [Compound 406, 2-methyl-1-(4-(6-(trifluoromethyl)pyridin-2-yl)-6-(5-(trifluoromethyl)pyridin-3-ylamino)-1,3,5-triazin-2-ylamino)propan-2-ol]",–,100 to 1000,< 100,–
"Fc1ccc(Nc2nc(NC3COC3)nc(-c3cccc(Cl)n3)n2)cn1 [Compound 410, 6-(6-chloropyridin-2-yl)-N^2-(6-fluoropyridin-3-yl)-N^4-(oxetan-3-yl)-1,3,5-triazine-2,4-diamine]",–,> 10000,100 to 1000,–
"O=C(Nc1nc(Nc2ccccc2)nc(-c2ccccc2)n1)c1ccc[nH]1 [Compound 414, 1H-Pyrrole-2-carboxylic acid (4-phenyl-6-phenylamino-[1,3,5]triazin-2-yl)-amide]",–,100 to 1000,100 to 1000,–
"COc1cc(Cl)cc(-c2nc(Nc3cc(F)cc(F)c3)nc(NC(C)C)n2)n1 [Compound 486, 6-(4-chloro-6-methoxypyridin-2-yl)-N^2-(3,5-difluorophenyl)-N^4-isopropyl-1,3,5-triazine-2,4-diamine]",100 to 1000,–,100 to 1000,–

# Continued, values first:
IC50 [1] [nM],IC50 [2] [nM],"IC50 ([3]; Homo sapiens, U-87 MG) [nM]",IC50 [3] [nM],Compound
< 100,< 100,< 100,–,CC(C)Nc1nc(Nc2ccccc2)nc(-c2ccccc2)n1 [Compound 100]
1000 to 10000,100 to 1000,1000 to 10000,–,CC(C)Nc1nc(Cc2ccccc2)nc(Nc2ccccc2)n1 [Compound 103]
1000 to 10000,100 to 1000,1000 to 10000,–,CC(C)Nc1nc(Nc2ccccc2)nc(-c2ccccc2NS(C)(=O)=O)n1 [Compound 109]
100 to 1000,< 100,100 to 1000,–,CC(C)(C)Nc1nc(Nc2ccccc2)nc(-c2ccccc2)n1 [Compound 112]
1000 to 10000,100 to 1000,1000 to 10000,–,CC(C)Nc1nc(Nc2ccccc2)nc(-c2cccnc2)n1 [Compound 114]
1000 to 10000,100 to 1000,–,–,Cc1cccc(C)c1-c1nc(Nc2ccccc2)nc(NC(C)C)n1 [Compound 117]
100 to 1000,< 100,< 100,–,COc1ccccc1-c1nc(Nc2ccccc2)nc(NC(C)C)n1 [Compound 120]
1000 to 10000,100 to 1000,–,–,CC(C)Nc1nc(NC2CCOCC2)nc(-c2ccccc2)n1 [Compound 137]
1000 to 10000,100 to 1000,–,–,CC(C)Nc1nc(Nc2ccccc2C#N)nc(-c2ccccc2)n1 [Compound 165]
1000 to 10000,100 to 1000,–,–,"COC(C)(C)CNc1nc(Nc2ccncc2)nc(-c2ccccc2)n1 [Compound 252, N^2-(2-methoxy-2-methylpropyl)-6-phenyl-N^4-(pyridin-4-yl)-1,3,5-triazine-2,4-diamine]"
–,100 to 1000,< 100,–,"CC(C)Nc1nc(Nc2ccnc(C#N)c2)nc(-c2cccc(C(F)(F)F)n2)n1 [Compound 404, 4-(4-(isopropylamino)-6-(6-(trifluoromethyl)pyridin-2-yl)-1,3,5-triazin-2-ylamino)picolinonitrile]"
–,100 to 1000,100 to 1000,–,"CC(C)(O)CNc1nc(Nc2cncc(F)c2)nc(-c2cccc(C(F)(F)F)n2)n1 [Compound 407, 1-(4-(5-fluoropyridin-3-ylamino)-6-(6-(trifluoromethyl)pyridin-2-yl)-1,3,5-triazin-2-ylamino)-2-methylpropan-2-ol]"
–,1000 to 10000,< 100,–,"Fc1cncc(Nc2nc(NC3C4COCC43)nc(-c3cccc(C(F)(F)F)n3)n2)c1 (stereo not drawn) [Compound 411, N^2-(3-oxabicyclo[3.1.0]hexan-6-yl)-N^4-(5-fluoropyridin-3-yl)-6-(6-(trifluoromethyl)pyridin-2-yl)-1,3,5-triazine-2,4-diamine]"
–,100 to 1000,–,< 100,"COC(=O)c1cc(Nc2nc(NC(C)C)nc(-c3ccccc3)n2)ccn1 [Compound 450, methyl 4-((4-(isopropylamino)-6-phenyl-1,3,5-triazin-2-yl)amino)picolinate]"
1000 to 10000,100 to 1000,–,–,"CC(C)Nc1nc(Nc2ccnc(C(F)(F)F)c2)nc(-c2cc(Cl)cc(C(F)(F)F)c2)n1 [Compound 644, 6-(3-Chloro-5-trifluoromethyl-phenyl)-N-isopropyl-N′-(2-trifluoromethyl-pyridin-4-yl)-[1,3,5]triazine-2,4-diamine]"
–,100 to 1000,1000 to 10000,–,"CC(C)Nc1nc(Nc2cccc(S(C)(=O)=O)c2)nc(-c2cc(F)cc(C(F)(F)F)c2)n1 [Compound 660, 6-(3-fluoro-5-(trifluoromethyl)phenyl)-N2-isopropyl-N4-(3-(methylsulfonyl)phenyl)-1,3,5-triazine-2,4-diamine]"
1000 to 10000,–,100 to 1000,–,"COc1cc(F)cc(-c2nc(Nc3ccnc(C(F)(F)F)c3)nc(NC(C)C)n2)c1 [Compound 662, 6-(3-fluoro-5-methoxyphenyl)-N2-isopropyl-N4-(2-(trifluoromethyl)pyridin-4-yl)-1,3,5-triazine-2,4-diamine]"
< 100,–,< 100,–,"CC(C)Nc1nc(Nc2ccnc(C(F)(F)F)c2)nc(-c2cccc(C(C)O)c2)n1 (stereo not drawn) [Compound 663, 1-(3-(4-(isopropylamino)-6-((2-(trifluoromethyl)pyridin-4-yl)amino)-1,3,5-triazin-2-yl)phenyl)ethanol]"
< 100,–,< 100,–,"CC(C)Nc1nc(Nc2ccnc(C(F)(F)F)c2)nc(-c2cc(O)cc(CO)c2)n1 [Compound 665, 3-(hydroxymethyl)-5-(4-(isopropylamino)-6-((2-(trifluoromethyl)pyridin-4-yl)amino)-1,3,5-triazin-2-yl)phenol]"
